Results on two compounds are retold here after ChEMBL document CHEMBL4304824, “Austalides V and W, new meroterpenoids from the fungus Aspergillus ustus and their antitumor activities” (Bioorg Med Chem Lett, 2019).

Active and inactive are the calls of the source. No cut-off for these calls is given here.

For data set [1], the system named is LNCaP. Kind of data set: Cytotoxicity against human LNCAP cells assessed as reduction in cell viability incubated for 48 hrs by xCELLigence RTCA analysis. Format: functional, cell-based.
The next data set deals with T-24. Kind of data set: Cytotoxicity against human T24 cells assessed as reduction in cell viability incubated for 48 hrs by xCELLigence RTCA analysis. Type of data set: functional, cell-based. The following applies: T-24, 48 h.
The test system of the next data set is DU-145. Briefly: Cytotoxicity against human DU145 cells assessed as reduction in cell viability incubated for 48 hrs by xCELLigence RTCA analysis. Type of data set: functional, cell-based. The following applies: DU-145, 48 h.
Data set [2] relates to LNCaP. Briefly: Cytotoxicity against human LNCAP cells assessed as reduction in cell viability measured after 25 hrs by xCELLigence RTCA analysis. Type of data set: functional, cell-based.
Data set [3] relates to LNCaP. Kind of data set: Inhibition of cell migration of human LNCAP cells at 8.8 uM measured every 10 mins for 24 hrs by xCELLigence RTCA analysis. Format: functional, cell-based.
Data set [4] concerns LNCaP. Briefly: Inhibition of Akt/mTOR pathway in human LNCAP cells assessed as reduction in mTOR phosphorylation at […] residue at 50 uM incubated for 48 hrs by chemiluminescence reagent based autoradiography. Format: cell-based.
The test system of data set [5] is LNCaP. Kind of data set: Inhibition of Akt/mTOR pathway in human LNCAP cells assessed as reduction in AKT1 phosphorylation at S473/T308 residues at 50 uM incubated for 48 hrs by chemiluminescence reagent based autoradiography. Format: cell-based.
The test system of data set [6] is LNCaP. Kind of data set: Inhibition of Akt/mTOR pathway in human LNCAP cells assessed as reduction in AKT2 phosphorylation at S473/T308 residues at 50 uM incubated for 48 hrs by chemiluminescence reagent based autoradiography. Format: cell-based.
In data set [7] the test system is LNCaP. Briefly: Inhibition of Akt/mTOR pathway in human LNCAP cells assessed as reduction in AKT3 phosphorylation at S473/T308 residues at 50 uM incubated for 48 hrs by chemiluminescence reagent based autoradiography. Format: cell-based.
For data set [8], the target named is Focal adhesion kinase 1 (Homo sapiens) (UniProt Q05397). Kind of data set: Inhibition of FAK phosphorylation at Y397 residue in human LNCAP cells at 50 uM incubated for 48 hrs by chemiluminescence reagent based autoradiography. Type of data set: cell-based.
Focal adhesion kinase 1 (Homo sapiens), sequence (Q05397 2-1052 limits assumed): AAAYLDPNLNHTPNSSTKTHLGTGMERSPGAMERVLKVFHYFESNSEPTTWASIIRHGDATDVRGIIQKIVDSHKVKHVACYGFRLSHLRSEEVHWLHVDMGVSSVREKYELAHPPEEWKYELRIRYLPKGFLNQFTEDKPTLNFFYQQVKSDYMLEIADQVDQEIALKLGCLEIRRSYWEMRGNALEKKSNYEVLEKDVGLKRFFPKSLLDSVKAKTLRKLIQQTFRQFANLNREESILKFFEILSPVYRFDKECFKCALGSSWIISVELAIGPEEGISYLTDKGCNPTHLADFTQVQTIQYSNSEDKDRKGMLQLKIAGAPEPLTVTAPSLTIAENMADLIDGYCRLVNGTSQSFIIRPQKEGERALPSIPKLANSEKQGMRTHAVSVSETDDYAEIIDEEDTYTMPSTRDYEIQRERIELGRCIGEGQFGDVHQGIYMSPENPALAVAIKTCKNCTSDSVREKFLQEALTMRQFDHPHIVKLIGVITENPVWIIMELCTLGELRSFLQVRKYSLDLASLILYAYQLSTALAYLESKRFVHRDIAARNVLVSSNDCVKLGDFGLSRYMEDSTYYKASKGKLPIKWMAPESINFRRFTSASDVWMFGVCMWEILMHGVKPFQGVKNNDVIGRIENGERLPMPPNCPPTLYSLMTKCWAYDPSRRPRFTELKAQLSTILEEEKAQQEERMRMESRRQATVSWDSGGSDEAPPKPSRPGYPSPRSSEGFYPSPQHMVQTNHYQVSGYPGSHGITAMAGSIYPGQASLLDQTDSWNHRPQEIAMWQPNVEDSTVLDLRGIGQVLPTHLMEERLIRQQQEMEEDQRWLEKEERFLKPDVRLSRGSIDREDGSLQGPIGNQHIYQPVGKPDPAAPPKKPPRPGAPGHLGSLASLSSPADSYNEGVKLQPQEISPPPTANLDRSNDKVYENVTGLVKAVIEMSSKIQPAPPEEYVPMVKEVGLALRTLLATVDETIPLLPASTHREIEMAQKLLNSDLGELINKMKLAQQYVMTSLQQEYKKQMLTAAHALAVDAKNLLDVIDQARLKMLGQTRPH
For data set [9], the system named is LNCaP. Briefly: Inhibition of Akt/mTOR pathway in human LNCAP cells assessed as reduction in PRAS40 phosphorylation at T246 residue at 50 uM incubated for 48 hrs by chemiluminescence reagent based autoradiography. Format: cell-based.
Data set [10] relates to LNCaP. Kind of data set: Inhibition of Akt/mTOR pathway in human LNCAP cells assessed as reduction in p70S6 kinase phosphorylation at T421/S424 residues at 50 uM incubated for 48 hrs by chemiluminescence reagent based autoradiography. Format: cell-based.
The target in data set [11] is Proto-oncogene tyrosine-protein kinase Src (Homo sapiens) (UniProt P12931). Kind of data set: Inhibition of c-Src phosphorylation at Y419 residue in human LNCAP cells at 50 uM incubated for 48 hrs by chemiluminescence reagent based autoradiography. Type of data set: cell-based.
Proto-oncogene tyrosine-protein kinase Src (Homo sapiens), sequence (P12931 2-536 limits assumed): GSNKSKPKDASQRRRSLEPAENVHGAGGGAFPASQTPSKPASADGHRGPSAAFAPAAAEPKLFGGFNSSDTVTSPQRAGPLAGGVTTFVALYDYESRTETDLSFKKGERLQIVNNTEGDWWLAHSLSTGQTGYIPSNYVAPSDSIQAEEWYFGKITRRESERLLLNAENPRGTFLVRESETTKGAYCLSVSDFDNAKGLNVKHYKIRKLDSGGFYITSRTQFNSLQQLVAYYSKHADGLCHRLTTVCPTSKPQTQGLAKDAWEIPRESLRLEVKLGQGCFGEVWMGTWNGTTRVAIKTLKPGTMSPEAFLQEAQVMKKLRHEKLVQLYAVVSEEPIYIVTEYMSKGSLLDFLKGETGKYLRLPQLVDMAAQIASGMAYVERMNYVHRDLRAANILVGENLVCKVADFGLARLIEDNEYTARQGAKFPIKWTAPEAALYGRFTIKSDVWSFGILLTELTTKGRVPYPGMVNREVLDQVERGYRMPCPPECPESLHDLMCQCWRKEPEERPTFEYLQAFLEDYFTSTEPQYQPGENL
Data set [12] concerns LNCaP. Briefly: Effect on total HSP60 level in human LNCAP cells at 50 uM incubated for 48 hrs by chemiluminescence reagent based autoradiography. Type of data set: ADME, cell-based.
Data set [13] relates to LNCaP. Briefly: Antiproliferation activity against human LNCAP cells assessed as reduction in cell density incubated for 72 hrs by microscopic method. Type of data set: functional, cell-based.
Data set [14] has as its system LNCaP. Briefly: Cytotoxicity against human LNCAP cells assessed as reduction in cell viability incubated for 12 hrs by xCELLigence RTCA analysis. Format: functional, cell-based.
The subject of data set [15] is LNCaP. Briefly: Inhibition of cell migration of human LNCAP cells at 8.9 uM measured every 10 mins for 24 hrs by xCELLigence RTCA analysis. Format: functional, cell-based.

Take `COc1c2c(c(C)c3c1C(=O)OC3)O[C@@]1(C)C[C@]3(O)OC[C@]4(C)O[C@@]5(OC)CC[C@](C)([C@H]1C2)[C@]43O5`: the half-inhibitory concentration (IC50) in the data set on LNCaP [1] was 27 µM; with T-24, 73 µM; with DU-145, 73 µM. Moreover, the inhibition entry in the data set on LNCaP [2], in the data set on LNCaP [3], in the data set with LNCaP [4], in the data set on LNCaP [5], with LNCaP [6] and with LNCaP [7] was “Active” in each case. Moreover, the inhibition result (in [8]; in the data set on LNCaP [9]; with LNCaP [10]; in data set [11]) was “Active” in each case. Further, in the data set with LNCaP [12], the Activity result is given as “Toxic”. The outcome with LNCaP [13] was Active.

As to `COc1c2c(c(C)c3c1C(=O)OC3)O[C@@]1(C)C[C@]3(O)OC[C@]4(C)O[C@@]5(OC)C[C@@H](OC(C)=O)[C@](C)([C@H]1C2)[C@]43O5`, the IC50 came to 20 µM with LNCaP [1], 64 µM in the data set on T-24 and 53 µM with DU-145. Besides, the inhibition result in the data set on LNCaP [14] is “Dose-dependent effect”. Besides, the inhibition result with LNCaP [15] is “Active”. The result with LNCaP [13] was Active.

Usually IC50 stands for the concentration needed to halve the response being measured.
